In patent US20230160878A1, “METHOD OF SCREENING A THERAPY FOR INDUCTION OF FERROPTOSIS” (priority 2020, published 2023):

Tests used:
HMOX1 [1] = assay: nascent RNA sequencing, transcriptional response to GPX4 inhibitors, HT-1080; assay type: cell-based; details: HT-1080, 1 μM, 1 hour
Experimental: (§1) To assess the transcriptional response of a cell to inhibition of GPX4, we exposed two cell lines to two different chemical inhibitors of GPX4 (ML162 and RSL3; available from Sigma Aldrich and Apex Bio respectively) and examined the transcriptional responses using a nascent RNA sequencing protocol. Briefly, a fibrosarcoma cell line HT-1080 and a lung fibroblast cell line IMR90 were exposed to 1 μM ML162 or 1 μM RSL3 for 1 hour and the nascent RNA sequencing protocol was performed.

HMOX1 [2] = assay: nascent RNA sequencing, transcriptional response to GPX4 inhibitors, IMR90; assay type: cell-based; details: IMR90, 1 μM, 1 hour
Experimental: as §1

HMOX1 [3] = assay: RT-qPCR of HMOX1 expression in HT-1080 cells; assay type: cell-based; details: for HMOX1 induction with versus without ferrostatin-1: HT-1080, sodium arsenite 80 μM, hemin 5 μM, RSL3 1 μM, with or without 1 μM ferrostatin-1, four hours, normalized to DMSO
Experimental: (§2) To confirm HMOX1 induction by the GPX4 inhibitors, an RT-qPCR assay was performed using three ferroptosis sensitive cancer cell lines: the fibrosarcoma cell line HT-1080, a Ewing's sarcoma cell line A673, and a renal clear cell carcinoma cell line 786-O. Briefly, cells were exposed to 1 μM ML162 or 1 μM RSL3 for 4 hours, RNA was isolated and an RT-qPCR assay was performed.
To further validate induction of HMOX1 mRNA expression by GPX4 inhibition, RT-qPCR was performed using varying doses of the RSL3 inhibitor. Briefly, HT-1080 cells were exposed to 5 μM RSL3, 1 μM RSL3, and 0.2 μM RSL3 for four hours, RNA was isolated and an RT-qPCR assay was performed to quantify HMOX1 expression. DMSO was used as a control exposure.
(§3) Briefly, HT-1080, A673, and 786-O cells were exposed to 1 μM ML162 or 1 μM RLS3 with or without 1 μM ferrostatin-1 for four hours, RNA was isolated and an RT-qPCR assay was performed to quantify HMOX1 expression. DMSO was used as a control exposure.
Sodium arsenite and hemin are known to be inducers of general oxidative stress in cells. Briefly, HT-1080 cells were exposed to sodium arsenite (80 μM), hemin (5 μM), ML162 (1 μM), or RSL3 (1 μM) with or without 1 μM ferrostatin-1 for four hours, RNA was isolated and an RT-qPCR assay was performed to quantify HMOX1 expression. DMSO was used as a control exposure.

HMOX1 [4] = assay: RT-qPCR of HMOX1 expression in A673 cells; assay type: cell-based; details: A673, 1 μM; for relative expression of HMOX1 in absence of ferrostatin-1: four hours, relative to ACTB
Experimental: as §2, §3

HMOX1 [5] = assay: RT-qPCR of HMOX1 expression in 786-O cells; assay type: cell-based; details: 1 μM; for relative expression of HMOX1 in absence of ferrostatin-1: four hours, relative to ACTB
Experimental: as §2, §3

HMOX1 [6] = assay: RT-qPCR rescue of GPX4 inhibitor-mediated HMOX1 induction by ferrostatin-1 (HT-1080, A673 and 786-O pooled statement); assay type: cell-based; details: 1 μM ferrostatin-1 with 1 μM ML162 or RSL3, HT-1080, A673, 786-O, four hours
Experimental: as §3

[7] = tested on: HT-1080, A673, and 786-O cells lines; details: ferrostatin-1 added to culture media; HT-1080, A673, 786-O; cited from earlier work
[8] = HT-1080, 1 μM, four hours, relative to ACTB
[9] = 4 hours, normalized to DMSO control, n=2

| Compound | HMOX1 differential expression (nascent transcription) (HMOX1 [1]) | HMOX1 differential expression (nascent transcription) (HMOX1 [2]) | relative expression of HMOX1 in absence of ferrostatin-1 (HMOX1 [3]; [8]) | relative expression of HMOX1 in absence of ferrostatin-1 (HMOX1 [4]) | relative expression of HMOX1 in absence of ferrostatin-1 (HMOX1 [5]) | HMOX1 induction with versus without ferrostatin-1 (HMOX1 [3]) | other results |
| --- | --- | --- | --- | --- | --- | --- | --- |
| COc1ccc(N(C(=O)CCl)C(C(=O)NCCc2ccccc2)c2cccs2)cc1Cl (centres unmarked) [ML162] | strongly differentially expressed | strongly differentially expressed | HMOX1 expression was observed | HMOX1 expression was observed | HMOX1 expression was observed | – | relative expression of HMOX1 in presence of ferrostatin-1 (HMOX1 [3]; HT-1080, 1 μM with 1 μM ferrostatin-1, four hours, relative to ACTB): induced HMOX1 even in the presence of ferrostatin-1 |
| COC(=O)c1ccc([C@@H]2c3[nH]c4ccccc4c3C[C@@H](C(=O)OC)N2C(=O)CCl)cc1 [RSL3] | strongly differentially expressed | strongly differentially expressed | HMOX1 expression was observed | HMOX1 expression was observed | HMOX1 expression was observed | dependent on lipid peroxidation | fold induction for HMOX1 mRNA (HMOX1 [3]; HT-1080, 1 μM, 4 hours, normalized to DMSO control, n=2): induced; relative expression level of HMOX1, dose dependence (HMOX1 [3]; HT-1080, 5 μM, 1 μM and 0.2 μM, four hours, relative to ACTB): proportional to the dose; fold induction for HMOX1 mRNA (HMOX1 [4]; [9]): induced; fold induction for HMOX1 mRNA (HMOX1 [5]; [9]): induced |
| CCOC(=O)c1ccc(NC2CCCCC2)c(N)c1 [ferrostatin-1] | – | – | – | – | – | – | effect of ferrostatin-1 on HMOX1 induction by GPX4 inhibitors (HMOX1 [6]): sufficient to prevent induction of HMOX1 in most conditions; cellular viability of cells treated with small molecules that induce lipid peroxidation [7]: rescues cellular viability |
| O=[As]O [sodium arsenite] | – | – | – | – | – | not affected by the presence of ferrostatin-1 | – |
| hemin | – | – | – | – | – | not affected by the presence of ferrostatin-1 | – |
